Key:
[1] = system: rat uterine decidualization; assay: Rat decidualization assay; format: in vivo; details: ovariectomized female Sprague-Dawley rats, s.c.; average of dose-response curves
Description: The animals are treated once daily for seven days.
Uteri are removed and trimmed of fat.
Decidual response: [(D−C)/C]×100%

| Compound | average EC50 for uterine weight (decidual response) [1] [mg/kg] | melting point [°C] |
| --- | --- | --- |
| C#C[C@]1(O)CC[C@H]2[C@@H]3CCC4=CC(=O)CC[C@@H]4[C@H]3CC[C@@]21CC [Levonorgestrel] | 0.10 |  |
| CC1(C)CC(=O)Nc2ccc(-c3cccc(C#N)c3)cc21 [Example 42, 3-(4,4-Dimethyl-2-oxo-1,2,3,4-tetrahydroquinolin-6-yl)benzonitrile] |  | 190 to 192 |
| C#C[C@]1(O)CC[C@H]2[C@@H]3CCC4=CC(=O)CC[C@@H]4[C@H]3C(=C)C[C@@]21CC [3-Ketodesogestrel] | 0.10 |  |

— patent US6693103B2 (Wyeth, priority 1999, dated 2004)
